The assay has as its system P388 leukemia ip, CD2F1 mice, survival T/C. Description: NCI In Vivo Anticancer Drug Screen. Data for tumor model P388 Leukemia (intraperitoneal) in CD2F1 (CDF1) mice. The following applies: endpoint: median survival time, higher = longer survival. An outline of the steps:
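Mice carrying the transplanted tumor received test compound or vehicle. Survival was recorded in each group, and the value is the treated-group measurement divided by that of the vehicle-treated control group.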

Where [1] appears, read: dose: 200.0 mg/kg/injection, schedule: Q01DX009 (ip), vehicle: Klucel (hydroxypropylcellulose) (HPC).
[2] abbreviates: dose: 60.0 mg/kg/injection, schedule: Q01DX005 (ip), vehicle: saline.
The mark [3] stands for this setting: dose: 120.0 mg/kg/injection, schedule: Q01DX005 (ip), vehicle: saline.
Setting [4] is: dose: 240.0 mg/kg/injection, schedule: Q01DX005 (ip), vehicle: saline.
Setting [5] is: dose: 60.0 mg/kg/injection, schedule: Q01DX005 (ip), vehicle: saline with Tween-80.
Setting [6] is: dose: 120.0 mg/kg/injection, schedule: Q01DX005 (ip), vehicle: saline with Tween-80.
Where [7] appears, read: dose: 240.0 mg/kg/injection, schedule: Q01DX005 (ip), vehicle: saline with Tween-80.

Values joined by “and” are separate entries in the source; they are usually repeats but may differ in a detail not shown here. Equal values may be shown once. Toxic doses and inconclusive results are not listed.

Take `O=C(O)c1ccc(O)c(S)c1`: the T/C is, setting by setting: (dose: 100.0 mg/kg/injection, schedule: Q04DX003 (ip), vehicle: alcohol) 106 % of control; (dose: 200.0 mg/kg/injection, schedule: Q04DX003 (ip), vehicle: alcohol) 101 % of control; (dose: 400.0 mg/kg/injection, schedule: Q04DX003 (ip), vehicle: alcohol) 105 % of control.
With `COc1cccc2c1C(=O)c1c(O)c3c(c(O)c1C2=O)CC(O)(C(=O)COC(C)C)CC3OC1CC(N)C(O)C(C)O1` (stereo unspecified), the T/C (dose: 3.13 mg/kg/injection, schedule: Q04DX003 (ip), vehicle: water) was 97 % of control; the T/C (dose: 6.25 mg/kg/injection, schedule: Q04DX003 (ip), vehicle: water) was 100 % of control; the T/C (dose: 12.5 mg/kg/injection, schedule: Q04DX003 (ip), vehicle: water) is 100 % of control; the T/C (dose: 25.0 mg/kg/injection, schedule: Q04DX003 (ip), vehicle: water) was 119 % of control; the T/C (dose: 50.0 mg/kg/injection, schedule: Q04DX003 (ip), vehicle: water) is 109 % of control.
With `CC1CCC2CC(C3CCCC[N-]3)[N-]C(N)C2C1.CC1CCC2CC(C3CCCC[N-]3)[N-]C(N)C2C1.O=[N+]([O-])O.[Cu+]` (stereo unspecified), the T/C (dose: 12.5 mg/kg/injection, schedule: Q04DX002 (ip), vehicle: saline) was 97 % of control; the T/C (dose: 12.5 mg/kg/injection, schedule: Q04DX002 (ip), vehicle: suspension in saline) was 100 % of control; the T/C (dose: 25.0 mg/kg/injection, schedule: Q04DX002 (ip), vehicle: saline) was 104 % of control; the T/C (dose: 25.0 mg/kg/injection, schedule: Q04DX002 (ip), vehicle: suspension in saline) was 104 % of control and 118 % of control; the T/C (dose: 50.0 mg/kg/injection, schedule: Q04DX002 (ip), vehicle: suspension in saline) is 111 % of control and 114 % of control; the T/C (dose: 100.0 mg/kg/injection, schedule: Q04DX002 (ip), vehicle: suspension in saline) was 103 % of control and 105 % of control and 120 % of control.
With `Cn1cccc1[N+](=O)[O-]`, the T/C is 100 % of control (dose: 12.5 mg/kg/injection, schedule: Q01DX009 (ip), vehicle: saline with Tween-80); 101 % of control (dose: 25.0 mg/kg/injection, schedule: Q01DX009 (ip), vehicle: saline with Tween-80); 100 % of control and 104 % of control (dose: 50.0 mg/kg/injection, schedule: Q01DX009 (ip), vehicle: saline with Tween-80); 101 % of control (dose: 100.0 mg/kg/injection, schedule: Q01DX009 (ip), vehicle: saline with Tween-80); 108 % of control (dose: 200.0 mg/kg/injection, schedule: Q01DX009 (ip), vehicle: saline with Tween-80).
Regarding `C=C(C)C(=O)OCCC[Si](OCCOC)(OCCOC)OCCOC`, the T/C (dose: 50.0 mg/kg/injection, schedule: Q01DX009 (ip), vehicle: saline) was 95 % of control; the T/C (dose: 100.0 mg/kg/injection, schedule: Q01DX009 (ip), vehicle: saline) was 95 % of control; the T/C (dose: 200.0 mg/kg/injection, schedule: Q01DX009 (ip), vehicle: saline) is 106 % of control.
Turning to `N#CC1C(C#N)C2(c3ccccc3)C(c3ccccc3)=NN(c3ccccc3)CC12` (stereo unspecified), the T/C was 91 % of control (dose: 25.0 mg/kg/injection, schedule: Q01DX001 (ip), vehicle: Klucel (hydroxypropylcellulose) (HPC)); 95 % of control (dose: 50.0 mg/kg/injection, schedule: Q01DX001 (ip), vehicle: Klucel (hydroxypropylcellulose) (HPC)); 87 % of control (dose: 100.0 mg/kg/injection, schedule: Q01DX001 (ip), vehicle: Klucel (hydroxypropylcellulose) (HPC)).
Turning to `O=C1[C@@H]2C3C=CC([C@H]4C(=O)N(CO)C(=O)[C@@H]34)[C@@H]2C(=O)N1CO`, the T/C is 114 % of control (dose: 25.0 mg/kg/injection, schedule: Q01DX009 (ip), vehicle: Klucel (hydroxypropylcellulose) (HPC)); 152 % of control and 160 % of control under setting [1].
`CC(=O)OC1C[C@@](C)(O)[C@@]23O[C@@H]2[C@@H]2O[C@]2(C)C3C2OC(=O)C(C)[C@H]12` (stereo partly specified): the T/C was 98 % of control (dose: 937.5 micrograms/kg/injection, schedule: Q01DX005 (ip), vehicle: Klucel (hydroxypropylcellulose) (HPC)); 100 % of control (dose: 1875.0 micrograms/kg/injection, schedule: Q01DX005 (ip), vehicle: Klucel (hydroxypropylcellulose) (HPC)); 100 % of control (dose: 3750.0 micrograms/kg/injection, schedule: Q01DX005 (ip), vehicle: Klucel (hydroxypropylcellulose) (HPC)); 97 % of control (dose: 7500.0 micrograms/kg/injection, schedule: Q01DX005 (ip), vehicle: Klucel (hydroxypropylcellulose) (HPC)).
For the compound `OCC1OC(Sc2ncc[nH]2)C(O)C(O)C1O` (stereo unspecified), the T/C was 94 % of control and 97 % of control under setting [2]; 95 % of control and 96 % of control under setting [3]; 97 % of control and 90 % of control under setting [4].
With `Nc1nnc2nc(C(C(=O)c3ccc(O)cc3O)c3nc4nnc(N)n4[nH]c3=O)c(=O)[nH]n12`, the T/C is, setting by setting: under setting [5], 102 % of control; under setting [6], 98 % of control; under setting [7], 104 % of control.
Take `CCOC(=O)c1c(Cl)c(Cc2ccccc2)c(Cl)n2c1nc1ccccc12`: the T/C is 99 % of control under setting [5], 93 % of control under setting [6] and 89 % of control under setting [7].
For the compound `Nc1nc(-c2ccc(Cl)cc2)cc(-c2cc(-c3ccc(Cl)cc3)nc(N)n2)n1`, the T/C runs as follows: under setting [2], 110 % of control; under setting [3], 102 % of control; under setting [4], 100 % of control.
In the case of `CSc1nc2ccc(CN3C(=O)c4ccccc4C3=O)cc2s1`, the T/C by setting is: (dose: 50.0 mg/kg/injection, schedule: Q01DX009 (ip), vehicle: Klucel (hydroxypropylcellulose) (HPC)) 88 % of control; (dose: 100.0 mg/kg/injection, schedule: Q01DX009 (ip), vehicle: Klucel (hydroxypropylcellulose) (HPC)) 98 % of control; under setting [1], 91 % of control.
Consider `OCC1CC(c2ccccc2)=NO1` (stereo unspecified), for which the T/C was 101 % of control (dose: 60.0 mg/kg/injection, schedule: Q01DX005 (ip), vehicle: Klucel (hydroxypropylcellulose) (HPC)); 100 % of control (dose: 120.0 mg/kg/injection, schedule: Q01DX005 (ip), vehicle: Klucel (hydroxypropylcellulose) (HPC)); 101 % of control (dose: 240.0 mg/kg/injection, schedule: Q01DX005 (ip), vehicle: Klucel (hydroxypropylcellulose) (HPC)).
For `CC(C)C1=CC23CCC4C(C)(C(N)=O)CCCC4(C)C2CC1C1C(=O)OC(=O)C13` (stereo unspecified), the T/C (dose: 100.0 mg/kg/injection, schedule: Q01DX001 (ip), vehicle: saline with Tween-80) was 91 % of control.
For `C#CC[N+]1(C)CCC=C(C(=O)OC)C1` (stereo unspecified), the T/C (dose: 25.0 mg/kg/injection, schedule: Q01DX009 (ip), vehicle: saline) was 97 % of control.
With `C=C1C(=O)C23C(OC(=O)CCC)C1CCC2C12COC3(O)C(O)C1C(C)(C)CCC2O` (stereo unspecified), the T/C by setting is: (dose: 3.75 mg/kg/injection, schedule: Q01DX009 (ip), vehicle: saline with Tween-80) 102 % of control; (dose: 7.5 mg/kg/injection, schedule: Q01DX009 (ip), vehicle: saline with Tween-80) 101 % of control; (dose: 15.0 mg/kg/injection, schedule: Q01DX009 (ip), vehicle: saline with Tween-80) 107 % of control; (dose: 30.0 mg/kg/injection, schedule: Q01DX009 (ip), vehicle: saline with Tween-80) 111 % of control.
Consider `CC(C)(C)OC(=O)NC(COCc1ccccc1)C(=O)O` (stereo unspecified), for which the T/C was 103 % of control (dose: 50.0 mg/kg/injection, schedule: Q01DX005 (ip), vehicle: saline with Tween-80); 98 % of control (dose: 100.0 mg/kg/injection, schedule: Q01DX005 (ip), vehicle: saline with Tween-80); 97 % of control (dose: 200.0 mg/kg/injection, schedule: Q01DX005 (ip), vehicle: saline with Tween-80).
On to `CCNC(CC)CCCNc1cc(OC)cc2cccnc12` (stereo unspecified), for which the T/C runs as follows: (dose: 6.25 mg/kg/injection, schedule: Q01DX005 (ip), vehicle: saline with Tween-80) 106 % of control; (dose: 12.5 mg/kg/injection, schedule: Q01DX005 (ip), vehicle: saline with Tween-80) 98 % of control; (dose: 25.0 mg/kg/injection, schedule: Q01DX005 (ip), vehicle: saline with Tween-80) 102 % of control.
On to `FC(F)(F)C1(C(F)(F)F)OI(Cl)c2ccccc21`, for which the T/C is 99 % of control (dose: 12.5 mg/kg/injection, schedule: Q04DX002 (ip), vehicle: Klucel (hydroxypropylcellulose) (HPC)); 99 % of control (dose: 25.0 mg/kg/injection, schedule: Q04DX002 (ip), vehicle: Klucel (hydroxypropylcellulose) (HPC)); 98 % of control (dose: 50.0 mg/kg/injection, schedule: Q04DX002 (ip), vehicle: Klucel (hydroxypropylcellulose) (HPC)).
As to `CN(C)N=Nc1cn[nH]c1C(N)=O`, the T/C is 109 % of control (dose: 50.0 mg/kg/injection, schedule: Q04DX003 (ip), vehicle: Klucel (hydroxypropylcellulose) (HPC)); 161 % of control and 163 % of control (dose: 200.0 mg/kg/injection, schedule: Q04DX003 (ip), vehicle: Klucel (hydroxypropylcellulose) (HPC)).

(Values after PubChem BioAssay AID330 (DTP/NCI, 2004).)
